Laboratory results published in US20160058806A1, “METHOD FOR STIMULATING INTESTINAL BARRIER INTEGRITY AFTER NON-NATURAL BIRTH” (N.V. Nutricia, priority 2005, published 2016).

Experiments:
[1] = test system: intestinal epithelial cell lines T84; test: Effect of LC-PUFA on IL-4 mediated barrier disruption of T84 monolayers (TER and permeability); type: cell-based; conditions: IL-4 2 ng/ml; fatty acid 100 μM, mucosal compartment; 48 hr pre-incubation + 48 hr co-incubation
Procedure: (§1) Monolayers (MC) of intestinal epithelial cell lines T84 were incubated in the luminal compartment with different 100 μM polyunsaturated fatty acids ARA (arachidonic acid; 5,8,11,14-eicosatetraenoic acid), DHA (cis-4,7,10,13,16,19 docosahexaenoic acid), EPA (eicosapentaenoic acid) or control palmiiic (C 16:0) acid (Palm) (Sigma, St. Louis, USA) for 0, 24, 48 and 72 hr. The epithelial barrier function was determined by measuring the transepithelial resistance (TER, Ωcm^2) by epithelial volt-ohm meter (EVOM; World Precision Instruments, Germany) and permeability for 4 kD FITC dextran (paracellular permeability marker, Sigma, USA).
Monolayers (MC) of intestinal epithelial cell lines T84 were incubated in the presence of IL-4 (2 ng/ml, scrosal compartment, Sigma, USA) with or without polyunsaturated fatty acids ARA, DHA, GLA, EPA, or control palmitic acid (10 μM or 100 μM, mucosal compartment, Sigma, St. Louis, USA). Cells were pre-incubated with ARA, DHA, EPA, or palmitic acid for 48 hr prior to the IL-4 incubation. The co-incubation of PUFA's and palmitic acid with IL-4 was continued for another 48 hr, while culture medium and additives were changed every 24 hr. The epithelial barrier function was determined by measuring the transepithelial resistance (TER) and permeability as described in example 2.

[2] = test system: intestinal epithelial cell lines T84; test: Effect of LC-PUFA on spontaneous barrier integrity of T84 monolayers (TER and 4 kD FITC dextran flux); type: cell-based; conditions: result in words
Procedure: as §1

Row | Compound | IL-4 Flux [1] | IL-4 TER [1] | effect on basal barrier integrity resistance and flux [2]
1 | CCCCCCCCCCCCCCCC(=O)O [Palmitic acid, palmitic acid, reference compound] | 777 | 321 | 
2 | CCCCCC=CCC=CCC=CCC=CCCCC(=O)O [ARA, 5,8,11,14-eicosatetraenoic acid] | 218 | 636 | 
3 | CCCCC/C=C\C/C=C\C/C=C\CCCCC(=O)O [GLA, gamma-linolenic acid] |  |  | positive effect
4 | CC/C=C\C/C=C\C/C=C\C/C=C\C/C=C\CCCC(=O)O [EPA, eicosapentaenoic acid] | 228 | 539 | 
